Earlier results, collected in patent publication US5196203A, “Theophylline dosage form” (priority 1989, dated 1993).

In the case of `Cn1c(=O)c2[nH]cnc2n(C)c1=O` [Theophylline, 1,3-dimethylxanthine], the “Effect at plasma concentrations above 20 mg/L” value is given as “often associated with theophylline toxicity”.
